Laboratory results as given in patent US20260137698A1, “CYCLIN-DEPENDENT KINASE 7 INHIBITORS” (JOINT STOCK COMPANY «BIOCAD», priority 2022, published 2026).
Read-outs that look alike come from different tables or passages of the source.

Key:
CDK7/Cyclin H/MNAT1 = CDK7/Cyclin H/MNAT1 (Homo sapiens, UniProt P50613); assay: Inhibition of CDK7/Cyclin H/MNAT1 kinase activity (ADP-Glo); assay type: biochemical
Method in brief: (§1)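 Kinase preincubated with compound (11 points, 4-fold steps from 50 μM) for 10 minutes at 25° C. in kinase buffer A with DTT, then reacted 40-60 minutes at 25° C. with ATP and CDKtide, Histone H1 or PDKtide substrate. ADP formation read by ADP-Glo luminescence; IC50 from four-parameter fit.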

CDK2/Cyclin A = CDK2/Cyclin A (Homo sapiens, UniProt P24941); assay: Inhibition of CDK2/Cyclin A kinase activity (ADP-Glo); assay type: biochemical
Method in brief: as §1

CDK9/Cyclin K = CDK9/Cyclin K (Homo sapiens, UniProt P50750); assay: Inhibition of CDK9/Cyclin K kinase activity (ADP-Glo); assay type: biochemical
Chain of CDK9/Cyclin K (P50750 whole entry): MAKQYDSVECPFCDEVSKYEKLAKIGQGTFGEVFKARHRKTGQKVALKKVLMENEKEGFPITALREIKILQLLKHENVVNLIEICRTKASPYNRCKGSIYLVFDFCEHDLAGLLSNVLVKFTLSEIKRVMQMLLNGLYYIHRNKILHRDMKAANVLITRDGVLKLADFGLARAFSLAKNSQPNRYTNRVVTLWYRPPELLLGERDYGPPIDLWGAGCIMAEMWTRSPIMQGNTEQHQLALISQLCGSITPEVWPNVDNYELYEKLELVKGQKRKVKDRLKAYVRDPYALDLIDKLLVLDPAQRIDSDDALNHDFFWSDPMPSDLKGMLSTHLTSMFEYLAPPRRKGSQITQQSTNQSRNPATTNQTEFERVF
Chain of CDK9/Cyclin K (O75909 whole entry partner): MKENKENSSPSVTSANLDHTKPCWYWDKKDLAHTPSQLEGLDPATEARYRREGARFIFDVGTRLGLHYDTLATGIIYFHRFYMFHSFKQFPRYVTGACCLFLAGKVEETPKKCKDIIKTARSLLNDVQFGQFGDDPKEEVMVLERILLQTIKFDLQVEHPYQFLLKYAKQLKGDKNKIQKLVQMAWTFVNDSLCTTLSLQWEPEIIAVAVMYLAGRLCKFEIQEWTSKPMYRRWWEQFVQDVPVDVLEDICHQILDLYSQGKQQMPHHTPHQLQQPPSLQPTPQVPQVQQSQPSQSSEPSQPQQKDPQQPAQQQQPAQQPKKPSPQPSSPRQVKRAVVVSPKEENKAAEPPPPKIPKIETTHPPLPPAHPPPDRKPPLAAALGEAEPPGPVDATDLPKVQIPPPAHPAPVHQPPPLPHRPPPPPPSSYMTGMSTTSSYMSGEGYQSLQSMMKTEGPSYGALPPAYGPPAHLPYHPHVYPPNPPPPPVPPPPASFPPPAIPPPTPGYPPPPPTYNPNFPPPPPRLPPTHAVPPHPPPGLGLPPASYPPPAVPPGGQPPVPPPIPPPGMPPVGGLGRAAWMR
Method in brief: as §1

CDK13/Cyclin K = CDK13/Cyclin K (Homo sapiens, UniProt Q14004); assay: Inhibition of CDK13/Cyclin K kinase activity (ADP-Glo); assay type: biochemical
Chain of CDK13/Cyclin K (Q14004 whole entry): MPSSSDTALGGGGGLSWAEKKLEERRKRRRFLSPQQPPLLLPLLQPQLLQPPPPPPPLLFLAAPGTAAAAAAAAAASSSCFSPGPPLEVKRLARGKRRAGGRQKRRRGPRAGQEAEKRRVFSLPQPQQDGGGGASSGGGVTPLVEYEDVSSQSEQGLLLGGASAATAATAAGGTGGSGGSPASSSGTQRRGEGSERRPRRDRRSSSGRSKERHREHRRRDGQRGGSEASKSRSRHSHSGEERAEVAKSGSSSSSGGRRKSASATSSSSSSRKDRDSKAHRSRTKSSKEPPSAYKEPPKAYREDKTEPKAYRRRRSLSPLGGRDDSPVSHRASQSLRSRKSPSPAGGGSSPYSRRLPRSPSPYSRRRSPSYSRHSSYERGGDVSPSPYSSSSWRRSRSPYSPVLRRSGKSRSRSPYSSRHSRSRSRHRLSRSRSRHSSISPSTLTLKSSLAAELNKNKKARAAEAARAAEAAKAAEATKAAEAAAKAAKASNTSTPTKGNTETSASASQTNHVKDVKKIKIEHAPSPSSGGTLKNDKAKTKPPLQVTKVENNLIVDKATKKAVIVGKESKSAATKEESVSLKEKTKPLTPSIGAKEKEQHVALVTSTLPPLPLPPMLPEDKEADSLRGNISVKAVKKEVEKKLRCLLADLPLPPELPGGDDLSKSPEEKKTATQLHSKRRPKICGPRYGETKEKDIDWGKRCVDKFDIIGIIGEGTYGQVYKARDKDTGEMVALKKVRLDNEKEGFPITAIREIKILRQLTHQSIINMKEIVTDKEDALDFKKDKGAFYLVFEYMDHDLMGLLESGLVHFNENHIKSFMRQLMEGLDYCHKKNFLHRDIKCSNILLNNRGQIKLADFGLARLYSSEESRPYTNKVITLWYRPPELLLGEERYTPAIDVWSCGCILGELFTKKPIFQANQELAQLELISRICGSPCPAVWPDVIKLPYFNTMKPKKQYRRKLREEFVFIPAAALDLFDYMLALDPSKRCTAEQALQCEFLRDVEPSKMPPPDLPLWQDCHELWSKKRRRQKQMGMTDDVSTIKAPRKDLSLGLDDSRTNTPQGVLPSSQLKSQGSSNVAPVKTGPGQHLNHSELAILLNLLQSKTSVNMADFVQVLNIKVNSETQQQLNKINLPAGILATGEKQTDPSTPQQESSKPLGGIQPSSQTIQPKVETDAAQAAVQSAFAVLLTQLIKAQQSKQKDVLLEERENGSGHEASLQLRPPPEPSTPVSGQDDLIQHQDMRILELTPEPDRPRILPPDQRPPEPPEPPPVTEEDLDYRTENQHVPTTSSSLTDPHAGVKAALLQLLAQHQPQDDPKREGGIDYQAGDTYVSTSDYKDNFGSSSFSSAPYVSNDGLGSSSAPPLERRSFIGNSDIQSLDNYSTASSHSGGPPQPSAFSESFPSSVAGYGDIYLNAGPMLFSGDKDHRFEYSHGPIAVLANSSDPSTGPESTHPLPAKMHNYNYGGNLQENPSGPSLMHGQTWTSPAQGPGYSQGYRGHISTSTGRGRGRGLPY
Chain of CDK13/Cyclin K (O75909 whole entry partner): as the sequence (O75909 whole entry partner) above
Protocol: Measurements were carried out in a 5 μl reaction volume using a 384-well plate (Corning Inc., order no. 4513). The analyzed substances were titrated from 50 μM in increments of 4 at 11 concentration points in a normal strength kinase buffer A (Thermo Fisher Scientific Inc, cat. no. PV3189) supplemented with DTT (Sigma, orde. no. 646563-10X.5ML) and prepared with water (Panreac, order no. 701074). Kinase was diluted in an analogous buffer, mixed with test compounds in plate wells and preincubated for 10 minutes at 25° C. Following incubation, a mixture of reaction substrate (CDKtide (SignalChem, order no. C06-58) or Histone H1 (SignalChem, order no. H10-54N) or PDKtide (SignalChem, order no. P10-58) and ATP (SignalChem, order no. V915B) prepared on a normal strength kinase buffer A was added. 1% solution of dimethyl sulfoxide (DMSO) (Sigma-Aldrich, order no. D2438) in the reaction volume was used as a negative control. The final concentrations of all reaction components are shown in Table 5. The plate was centrifuged at 400 rcf (Eppendorf, 5804 R) for 1 minute and incubated for 40-60 minutes at 25° C. The amount of ATP consumed in the kinase reaction was then measured using the ADP-Glo™ detection system. Luminescence signal was measured using Spark 20M tablet multifunction reader (Tecan Group Ltd, Switzerland). IC50 value was calculated using Magellan 7.2 (Tecan Group Ltd, Switzerland) by approximating experimental points by four-parameter model with the optimization by Levenberg-Marquardt:
[formula] • where A is the upper asymptote; D is the lower asymptote; C is IC50, half-maximal inhibitory concentration of kinase, nM; B is the curvature (slope).

[1] = tested on: MDA-MB-468 (triple negative breast cancer); assay: Antiproliferative assay on MDA-MB-468 cells (AlamarBlue, 96 h); assay type: cell-based; conditions: Homo sapiens, mean value from several measurements
[2] = tested on: NCl-H82 (small cell lung cancer); assay: Antiproliferative assay on NCl-H82 cells (AlamarBlue, 120 h); assay type: cell-based; conditions: mean value from several measurements
Protocol: The antiproliferative activity of CDK7 inhibitors according to the present invention was evaluated in a cell test using continuous cell cultures: MDA-MB-468 (triple negative breast cancer, ATCC® HTB-132™) and NCl-H82 (small cell lung cancer, ATCC® HTB-175™) using a viable AlamarBlue dye (Thermo Fisher Scientific Inc, order no. DAL1100). The cells were grown in DMEM (PanEco, order no. C330π) and RPMI-1640 (PanEco, order no. C330π), respectively. The basal growth medium was enriched with L-glutamine at a concentration of 2 mM (PanEco, order no. Φ032) and 10% fetal bovine serum (Gibco, order no. 16140-071). The night before measurement, MDA-MB-468 adherent cells were detached from plastic with a solution of trypsin-EDTA (PanEco, order no. Π039π), the solution was then inactivated by a DMEM complete medium, centrifuged at 1000 RPM (Eppendorf, 5804 R), a suspension of cells was prepared in a DMEM complete medium, introduced into 96-well culture plates (Corning Inc, order no. 3599) at 8×10^3 cells in 100 μl of medium per well. The next day, test compounds were dissolved in DMSO and diluted with a DMEM complete medium to a final concentration ranging from 50 μM to 10 pM. Diluted compounds in a volume of 50 μl were introduced into the plate wells with cells in triplicates (the final concentration of DMSO was no more than 1%) and incubated at 37° C. in an incubator with 5% CO2 for 96 hours. NCl-H82 suspension cell line was prepared on the day of the analysis. 10×10^3 cells in 100 μl of an RPMI-1640 complete medium were added to each well of a 96-well plate. The procedure for sample dilution is as described above. Cells with test compounds were incubated at 37° C. in an incubator with 5% CO2 for 120 hours. Following incubation, […] of AlamarBlue reagent (Thermo Fisher Scientific Inc., order no. DAL1100) was added to the wells, the contents of the plates were stirred in an orbital shaker (Biosan, Latvia), then further incubated for 5.5-6 hours at 37° C. in an incubator with 5% CO2. The number of viable cells was detected using the Infinite M200Pro microplate spectrophotometer (Tecan Group Ltd, Switzerland) by way of measuring a fluorescent signal at an excitation wavelength (λEx) of 540 nm and an emission wavelength (λEm) of 590 nm.
IC50 value was calculated using the Magellan software (Tecan Group Ltd, Switzerland) by approximating experimental points by four-parameter model with the optimization by Levenberg-Marquardt: […]

[3] = General cytotoxicity on primary differentiated HepaRG cells (72 h); assay type: cell-based; conditions: human, general toxicity, mean value from several measurements
Method in brief: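 Differentiated HepaRG cells, maintained a week in basal hepatic medium with maintenance/metabolism supplement, were plated at 25×10^3 cells/well overnight. Compounds (200 μM to 0.2 nM) were added for 72 h before viability readout.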

[4] = Passive membrane permeability through PAMPA artificial membrane, pH 7.4; assay type: in vitro ADME; conditions: pH 7.4, 10 μmol, 20 hours at room temperature, mean of multiple measurements, read-out: PAMPA passive permeability Pe
Method in brief: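 Compound at 10 μmol in 0.01 M phosphate buffer pH 7.4 placed in donor wells over lecithin-phospholipid-impregnated PVDF filter, buffer in acceptor; 20 h at room temperature. Donor and acceptor levels measured by RP-HPLC-UV; Pe (cm/s) and membrane retention R (%) calculated.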

[5] = Microsomal stability in human liver microsomes (HLM); assay type: in vitro ADME; conditions: 1 μM test compound
Protocol: The procedure for investigating the metabolism of selected compounds was carried out in microsomal fractions of the liver (of rats, mice, humans) in the presence of a phase I metabolism cofactor (NADPH).
The rate of enzymatic decomposition of the compound in liver microsomes in in vitro analysis was determined by keeping a reaction mixture comprising 0.5 mg/ml of pooled human, rat or mouse liver microsomes, 1 μM test compound, 1.5 mM […] (Carbosynth, UK, cat. no. NN108711101) and 1.5 mM magnesium chloride in 0.1 M sodium phosphate buffer (pH 7.4) in a solid-state thermostat at 37° C. (XenoTech, USA, order no. H2610, cat. no. R1000, cat. no. M1000). Incubation was carried out in three replicates.
To determine the stability of compounds under sample preparation conditions, an aliquot in two replicates with the test compound and a microsomal fraction devoid of the NADPH cofactor, which was incubated for 40 minutes at 37° C.
Reactions were stopped at 0, 10, 20, 30 and 40 min time points by way of adding an ice mixture of acetonitrile:methanol (3:1) comprising an internal standard.
Samples were then centrifuged to remove the precipitated protein, supernatants were analyzed using HPLC-MS/MS to determine in vitro clearance (CLint) of the compounds. The Agilent 6410 mass spectrometer (Agilent, USA) combined with the Agilent 1260 Infinity II HPLC liquid chromatograph (Agilent, USA) and a cooling autosampler controlled by MassHunter software (Agilent, USA) was used as an HPLC-MS/MS system. Chromatographic analysis was performed on a C18 reversed-phase HPLC column (Agilent, Waters or equivalent) in a gradient elution mode in a system of mobile phases: 0.1% formic acid in water/0.1% formic acid in acetonitrile, flow rate: 0.5 ml/min, column T=35° C. Mass spectrometric detection was performed with electrospray ionization in multiple reaction monitoring mode. Precursor ions, fragment ions and collision energies for each substance were selected experimentally.
A graph of dependence of the logarithmic ratio between substance's peak area and internal standard's peak area vs time was built. The dependent coefficient of this line corresponded to the elimination rate constant k, on the basis of which the in vitro clearance CLint was calculated:
Based on resulting in vitro clearance CLint values, the microsomal stability of the selected compounds for humans, rats and mice was concluded.

[6] = mean value from several measurements, read-out: IC50 CDK7/Cyclin H/MNAT
[7] = mean value from several measurements, read-out: IC50 CDK2/Cyclin A
[8] = mean value from several measurements, read-out: IC50 CDK9/Cyclin K
[9] = mean value from several measurements, read-out: IC50 CDK13/Cyclin K
[10] = mean of multiple measurement series, ATP 10 μM, read-out: CDK7/Cyclin H/MNAT1 IC50
[11] = mean of multiple measurement series, ATP 50 μM, read-out: CDK2/Cyclin A IC50
[12] = mean of multiple measurement series, ATP 50 μM, read-out: CDK9/Cyclin K IC50

Chain of CDK7/Cyclin H/MNAT1 (P50613 whole entry): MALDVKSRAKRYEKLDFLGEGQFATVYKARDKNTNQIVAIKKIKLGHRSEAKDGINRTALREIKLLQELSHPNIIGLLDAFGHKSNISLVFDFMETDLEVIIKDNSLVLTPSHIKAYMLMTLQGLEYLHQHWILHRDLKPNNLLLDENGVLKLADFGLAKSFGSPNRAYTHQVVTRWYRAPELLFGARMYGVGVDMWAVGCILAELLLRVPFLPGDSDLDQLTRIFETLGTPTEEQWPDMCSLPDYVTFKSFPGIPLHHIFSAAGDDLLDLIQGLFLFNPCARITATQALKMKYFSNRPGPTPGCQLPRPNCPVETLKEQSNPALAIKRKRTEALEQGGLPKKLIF
Chain of CDK7/Cyclin H/MNAT1 (P51946 whole entry partner): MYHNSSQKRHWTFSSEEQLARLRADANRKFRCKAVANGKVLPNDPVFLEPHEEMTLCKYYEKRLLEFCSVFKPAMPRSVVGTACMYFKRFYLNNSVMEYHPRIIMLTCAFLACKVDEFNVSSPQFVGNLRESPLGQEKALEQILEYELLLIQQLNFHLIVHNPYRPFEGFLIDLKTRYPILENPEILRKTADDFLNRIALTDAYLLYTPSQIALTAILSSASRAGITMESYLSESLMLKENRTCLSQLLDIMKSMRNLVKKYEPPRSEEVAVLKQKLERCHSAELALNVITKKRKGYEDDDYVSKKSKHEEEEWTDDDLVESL
Chain of CDK7/Cyclin H/MNAT1 (P51948 whole entry partner): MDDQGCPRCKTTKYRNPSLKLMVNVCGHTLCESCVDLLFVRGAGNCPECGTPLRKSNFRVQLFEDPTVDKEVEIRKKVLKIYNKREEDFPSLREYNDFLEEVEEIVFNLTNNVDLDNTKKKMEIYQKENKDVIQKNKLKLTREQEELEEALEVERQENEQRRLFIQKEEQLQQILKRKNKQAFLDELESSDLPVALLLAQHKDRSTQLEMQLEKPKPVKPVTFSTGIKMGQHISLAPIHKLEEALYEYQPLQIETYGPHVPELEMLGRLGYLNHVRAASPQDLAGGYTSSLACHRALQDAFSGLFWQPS

IC50 (CDK7/Cyclin H/MNAT1; [6]) [nM]	IC50 (CDK2/Cyclin A; [7]) [nM]	IC50 (CDK9/Cyclin K; [8]) [nM]	IC50 [1] [nM]	IC50 [2] [nM]	In vitro clearance CLint (HLM) [5]	SMILES	IC50 (CDK13/Cyclin K; [9]) [nM]	CC50 at 72 h [3] [nM]	Papp at 20 h, 10 μmol [4] [×10⁻⁶ cm/s]	IC50 (CDK7/Cyclin H/MNAT1; [10]) [nM]	IC50 (CDK2/Cyclin A; [11]) [nM]	IC50 (CDK9/Cyclin K; [12]) [nM]	IC50 (CDK13/Cyclin K; mean of multiple measurement series, ATP 10 μM, read-out: CDK13/Cyclin K IC50) [nM]
< 5	> 200	5 to 50	10 to 100	10 to 100	–	Cn1nnc(-c2cc(-c3nc(N[C@H]4CCCNC4)ncc3C(F)(F)F)c[nH]2)n1 [CDK7_1000, 4-[5-(2-methyl-2H-1,2,3,4-tetrazol-5-yl)-1H-pyrrol-3-yl]-N-[(3S)-piperidin-3-yl]-5-(trifluoromethyl)py-rimidin-2-amine]	5 to 50	100 to 500	< 1	–	–	–	–
< 5	> 200	> 200	< 10	10 to 100	A (Clint < 20 μl/(min · mg of protein))	Cc1noc(C)c1-n1ccc2c(-c3nc(N[C@H]4CCCNC4)ncc3C(F)(F)F)c[nH]c2c1=O [CDK7_924, 6-(3,5-dimethyl-1,2-oxazol-4-yl)-3-(2-{[(3S)-piperidin-3-yl]amino}-5-(trifluoromethyl)pyrimidin-4-yl)-1H,6H,7H-pyrrolo[2,3-c]pyridin-7-one]	–	> 2000	–	< 5	7800	431	–
< 5	> 200	50 to 200	10 to 100	10 to 100	A (Clint < 20 μl/(min · mg of protein))	FC(F)(F)c1cnc(N[C@H]2CCCNC2)nc1-c1c[nH]c(-c2noc(C3CC3)n2)c1 [CDK7_1103]	–	100 to 500	–	–	–	–	–

SMILES	IC50 (CDK7/Cyclin H/MNAT1; [6]) [nM]	IC50 (CDK2/Cyclin A; [7]) [nM]	IC50 (CDK9/Cyclin K; [8]) [nM]	IC50 [1] [nM]	IC50 [2] [nM]	In vitro clearance CLint (HLM) [5]	IC50 (CDK13/Cyclin K; [9]) [nM]	CC50 at 72 h [3] [nM]	Papp at 20 h, 10 μmol [4] [×10⁻⁶ cm/s]	IC50 (CDK7/Cyclin H/MNAT1; [10]) [nM]	IC50 (CDK2/Cyclin A; [11]) [nM]	IC50 (CDK9/Cyclin K; [12]) [nM]	IC50 (CDK13/Cyclin K; mean of multiple measurement series, ATP 10 μM, read-out: CDK13/Cyclin K IC50) [nM]
CN1CCCc2c(-c3nc(N[C@H]4CCC5(CC5)NC4)ncc3C(F)(F)F)c[nH]c2C1=O [CDK7_1201, 3-[2-({4-azaspiro[2.5]octan-6-yl}amino)-5-(trifluoromethyl)py-rimidin-4-yl]-7-methyl-1H,4H,5H,6H,7H, 8H-pyrrolo[2,3-c]azepin-8-one]	< 5	> 200	50 to 200	< 10	< 10	–	50 to 200	500 to 2000	5 to 10	< 5	4500	112	65
